Source: ChEMBL document CHEMBL1201862, “PubChem BioAssay data set” (2004)
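The compound was tested at five concentrations on cells cultured in 96-well plates, with a 48-hour exposure period. GI50 is the concentration that inhibits growth by half.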 Calls of active or inactive are those of the source. Rule as the data show it: active = GI50 up to about 1.1 µM and inactive = higher.

Experiments:
Assay in all cases: growth of human tumour cells (NCI), 48 h
[1] = test system: BT-549
[2] = test system: CAKI-1
[3] = test system: CCRF-CEM
[4] = test system: HCT-116
[5] = test system: HOP-92
[6] = test system: LOX IMVI
[7] = test system: M14
[8] = test system: MCF7
[9] = test system: NCI-H226
[10] = test system: NCI/ADR-RES
[11] = test system: OVCAR-3
[12] = test system: OVCAR-4
[13] = test system: OVCAR-5
[14] = test system: OVCAR-8
[15] = test system: SK-MEL-5
[16] = test system: SNB-75
[17] = test system: U-251
[18] = test system: UACC-257
[19] = test system: UO-31

SMILES | GI50 [1] | GI50 [2] | GI50 [3] | GI50 [4] | GI50 [5] | GI50 [6] | GI50 [7] | GI50 [8] | GI50 [9] | GI50 [10] | GI50 [11] | GI50 [12] | GI50 [13] | GI50 [14] | GI50 [15] | GI50 [16] | GI50 [17] | GI50 [18] | GI50 [19]
CC1CCc2c(c(CC3CC(=O)NC(=O)C3)nn2-c2ccccc2)C1 (stereo not drawn) | > 100 µM (inactive) | > 100 µM (inactive) | > 100 µM (inactive) | > 100 µM (inactive) | > 100 µM (inactive) | > 100 µM (inactive) | > 100 µM (inactive) | > 100 µM (inactive) | > 100 µM (inactive) | 75.2 µM (inactive) | > 100 µM (inactive) | > 100 µM (inactive) | > 100 µM (inactive) | 93.8 µM (inactive) | > 100 µM (inactive) | > 100 µM (inactive) | > 100 µM (inactive) | > 100 µM (inactive) | 55.6 µM (inactive)
Cc1c(-c2ccccc2)cc(O)c2nc3ccccc3n12 | 12.6 µM (inactive) | 74.1 µM (inactive) | 17 µM (inactive) | – | 10.2 µM (inactive) | 4.99 µM (inactive) | > 100 µM (inactive) | 57.9 µM (inactive) | > 100 µM (inactive) | 7 µM (inactive) | > 100 µM (inactive) | 9.68 µM (inactive) | > 100 µM (inactive) | > 100 µM (inactive) | 44 µM (inactive) | 7.4 µM (inactive) | 6.75 µM (inactive) | > 100 µM (inactive) | 9.25 µM (inactive)
O=c1[nH]nc(-c2ccccc2)n1-c1ccncc1 | > 100 µM (inactive) | > 100 µM (inactive) | > 100 µM (inactive) | > 100 µM (inactive) | > 100 µM (inactive) | > 100 µM (inactive) | > 100 µM (inactive) | > 100 µM (inactive) | > 100 µM (inactive) | > 100 µM (inactive) | > 100 µM (inactive) | > 100 µM (inactive) | > 100 µM (inactive) | > 100 µM (inactive) | > 100 µM (inactive) | > 100 µM (inactive) | > 100 µM (inactive) | > 100 µM (inactive) | > 100 µM (inactive)
C=CC(c1ccccc1)[C@@]1(OC(C)=O)C(=O)C(=O)OC1C1COC(C)(C)O1 (stereo partly drawn) | 12 µM (inactive) | 4.72 µM (inactive) | 2.84 µM (inactive) | 11.1 µM (inactive) | 5.92 µM (inactive) | 4.16 µM (inactive) | 11.1 µM (inactive) | 5.68 µM (inactive) | 17.2 µM (inactive) | 15.5 µM (inactive) | 10.7 µM (inactive) | 14.9 µM (inactive) | 18.5 µM (inactive) | 13.1 µM (inactive) | 15.9 µM (inactive) | 14.5 µM (inactive) | 14.3 µM (inactive) | 9.71 µM (inactive) | 11.5 µM (inactive)
Cc1oc2c(c1C)S(=O)(=O)C(C#N)=C(N(C)C)N2 | > 100 µM (inactive) | > 100 µM (inactive) | – | > 100 µM (inactive) | > 100 µM (inactive) | > 100 µM (inactive) | > 100 µM (inactive) | > 100 µM (inactive) | > 100 µM (inactive) | > 100 µM (inactive) | > 100 µM (inactive) | > 100 µM (inactive) | > 100 µM (inactive) | > 100 µM (inactive) | > 100 µM (inactive) | > 100 µM (inactive) | > 100 µM (inactive) | > 100 µM (inactive) | > 100 µM (inactive)
OC(c1nc2ccccc2[nH]1)C(O)C(O)C(O)c1nc2ccccc2[nH]1 (stereo not drawn) | > 100 µM (inactive) | > 100 µM (inactive) | – | > 100 µM (inactive) | > 100 µM (inactive) | > 100 µM (inactive) | > 100 µM (inactive) | > 100 µM (inactive) | > 100 µM (inactive) | > 100 µM (inactive) | > 100 µM (inactive) | > 100 µM (inactive) | > 100 µM (inactive) | > 100 µM (inactive) | > 100 µM (inactive) | > 100 µM (inactive) | > 100 µM (inactive) | > 100 µM (inactive) | > 100 µM (inactive)
Nc1ccc2[nH]c(C(=O)N3CC(CCl)c4c3cc(N)c3ccccc43)cc2c1 (stereo not drawn) | < 0.016 µM (active) | < 0.01 µM (active) | < 0.01 µM (active) | < 0.01 µM (active) | 0.0115 µM (active) | < 0.01 µM (active) | 0.0107 µM (active) | < 0.01 µM (active) | 0.0105 µM (active) | < 0.01 µM (active) | 0.0166 µM (active) | < 0.01 µM (active) | < 0.01 µM (active) | < 0.01 µM (active) | < 0.01 µM (active) | < 0.01 µM (active) | < 0.01 µM (active) | 0.0142 µM (active) | 0.0114 µM (active)
NP(=O)(Oc1c2occc2cc2ccc(=O)oc12)N(CCCl)CCCl (stereo not drawn) | > 100 µM (inactive) | > 100 µM (inactive) | 45.2 µM (inactive) | > 100 µM (inactive) | 49.1 µM (inactive) | 37.6 µM (inactive) | > 100 µM (inactive) | 51.1 µM (inactive) | 74.5 µM (inactive) | > 100 µM (inactive) | > 100 µM (inactive) | > 100 µM (inactive) | > 100 µM (inactive) | 73.6 µM (inactive) | 27.9 µM (inactive) | – | > 100 µM (inactive) | > 100 µM (inactive) | > 100 µM (inactive)
